Results on 14 compounds are retold here after patent US20200071310A1, “N-ARYL PYRAZOLES AS NRF2 REGULATORS” (GLAXOSMITHKLINE INTELLECTUAL PROPERTY DEVELOPMENT LIMITED, priority 2016, published 2020).

The structures appear in SMILES notation. Where a name gives a salt, the structure may show the parent alone.

The subject of assay [1] is NQO1 specific enzyme activity in BEAS-2B cells. The assay is described as follows: BEAS-2B NQO1 MTT Assay. Format: cell-based. The conditions noted are these: Homo sapiens; NQO1 specific activity induction, BEAS-2B cells, 48 hours; read-out: EC50. The source says:
NAD(P)H:quinone oxidoreductase 1 (NQO1), also called DT diaphorase, is a homodimeric FAD-containing enzyme that catalyzes obligatory NAD(P)H-dependent two-electron reductions of quinones and protects cells against the toxic and neoplastic effects of free radicals and reactive oxygen species arising from one-electron reductions. The transcription of NQO1 is finely regulated by NRF2, and thus NQO1 activity is a good marker for NRF2 activation. On day one, frozen BEAS-2B cells (ATCC) were thawed in a water bath, counted, and re-suspended at a concentration of 250,000 cells/mL. Fifty microliters of cells were plated in 384 well black clear-bottomed plates. Plates were incubated at 37° C., 5% CO2 overnight. On day two, plates were centrifuged and 50 nL of compound or controls were added to the cells. Plates were then incubated at 37° C., 5% CO2 for 48 hours. On day four, medium was aspirated from the plate and crude cell lysates were made by adding 13 uL of 1× Cell Signaling Technologies lysis buffer with 1 Complete, Mini, EDTA-free Protease Inhibitor Tablet (Roche) for each 10 mL of lysis buffer. After lysis plates were incubated for 20 minutes at room temperature. Two microliters of lysate were removed for use in Cell Titer Glo assay (Promega) and MTT cocktail was prepared (Prochaska et. al. 1998) for measurement of NQO1 activity. Fifty microliters of MTT cocktail is added to each well, plate is centrifuged, and analyzed on an Envision plate reader (Perkin Elmer) using Absorbance 570 nm label for 30 minutes. Product formation was measured kinetically and the pEC50 of NQO1 specific activity induction was calculated by plotting the change in absorbance (Delta OD/min) versus the log of compound concentration followed by 3-parameter fitting. pEC50 is the negative log of the EC50.

For assay [2], the target named is T1, full length Keap1 protein / full length NRF2 protein (Homo sapiens, UniProt Q14145).
T1 construct: full length NRF2 protein and full length Keap1 protein (Keap1 exists a dimer) are used; His
T1 sequence (Q14145 whole entry): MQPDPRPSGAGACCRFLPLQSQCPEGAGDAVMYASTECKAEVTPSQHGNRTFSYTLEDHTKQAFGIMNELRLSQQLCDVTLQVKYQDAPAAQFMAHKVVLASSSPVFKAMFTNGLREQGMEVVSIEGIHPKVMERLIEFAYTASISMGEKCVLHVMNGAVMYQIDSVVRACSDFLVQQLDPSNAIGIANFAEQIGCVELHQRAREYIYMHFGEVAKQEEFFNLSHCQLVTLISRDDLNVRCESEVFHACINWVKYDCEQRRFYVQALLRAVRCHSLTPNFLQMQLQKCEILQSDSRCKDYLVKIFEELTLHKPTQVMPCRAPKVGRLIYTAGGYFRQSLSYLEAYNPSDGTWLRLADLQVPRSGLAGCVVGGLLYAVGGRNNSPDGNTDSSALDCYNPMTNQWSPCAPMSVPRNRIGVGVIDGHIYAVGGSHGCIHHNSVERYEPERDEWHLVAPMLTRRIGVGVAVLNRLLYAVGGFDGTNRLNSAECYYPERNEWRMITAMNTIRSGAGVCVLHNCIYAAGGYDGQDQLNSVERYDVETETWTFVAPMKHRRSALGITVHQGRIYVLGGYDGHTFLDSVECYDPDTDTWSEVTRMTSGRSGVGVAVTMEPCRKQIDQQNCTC
The experiment in a line: NRF2-Keap1 TR-FRET Low Protein Assay. It counts as binding. The source says: In the NRF2-Keap1 TR-FRET (time-resolved fluorescence resonance energy transfer) low protein assay, full length NRF2 protein and full length Keap1 protein (Keap1 exists a dimer) are used. The assay detects a compound's ability to displace the binding of Keap1 FlagHis with biotinylated Avi-NRF2 protein. Biotin-NRF2 binds to streptavidin-europium (a component of the detection mix) and Keap1 FlagHis is recognized by anti-Flag APC (allophycocyanin) antibody (also a component of the detection mix). If binding occurs between the two proteins, there will be an energy transfer from the Eu+3 (donor) at 615 nm to the APC (acceptor) at 665 nm. A potential NRF2 inhibitor will cause a reduction in the TR-FRET signal by interfering with the binding of Keap1 to NRF2.
Ten nanoliters of 100× compound dose response curves (serial 3-fold dilutions) in DMSO were stamped using an Echo liquid handling system (Labcyte) into 384-well, low volume, black assay plates (Greiner, #784076), with DMSO in columns 6 and 18. An additional 90 nl DMSO was added to each well, to bring the total volume to 100 nl per well. The top concentration of compound was located in columns 1 and 13, with the serial dilutions going across the row. All reagents were diluted in assay buffer (50 mM Tris, pH 8.0, 5 mM MgCl2, 100 mM NaCl, 0.005% BSA, 1 mM DTT, and 2 mM CHAPS. The BSA, DTT, and CHAPS were added to the assay buffer on the day of assay. Using a Multidrop Combi (Thermo Electron Corporation) equipped with a metal tip dispenser, 5 ul of 1.25 nM Keap1 FlagHis protein was added to all wells of the compound plate, with the exception of the wells in column 18. Wells in column 18 received 5 ul of assay buffer instead. Plates were centrifuged at 500 rpm for 1 minute, covered with a plate lid, and incubated at 37° C. for 2.25 hours. Plates were then removed from the incubator and allowed to cool to RT for 15 minutes. Five microliters of 2.5 nM biotin-NRF2 protein was then added to all wells of the plates and the plates were spun at 500 rpm for 1 minute, followed by incubating at 4° C. for 1.25 hours. The plates were then allowed to warm to RT for 15 minutes, followed by the addition of 10 ul of detection mix (1 nM Streptavidin Eu+W1024 and 5 ug/ml mouse anti-DYKDDDDK IgG conjugated to SureLight APC antibody; both from Columbia Biosciences) to all wells. Plates were spun at 500 rpm for 1 minute, incubated for 1 hour at RT, and read on an Envision plate reader using a 320 nm excitation filter and 615 nm and 665 nm emission filters. Compound response (% inhibition) and potency (pIC50) were calculated based on the ratio of the two emissions (665 nm/615 nm) and then the transformed data was normalized against controls in the assay (control 1=1% DMSO in the presence of NRF2 and Keap1 protein and control 2=1% DMSO in the presence of only the NRF2 protein). Data analysis was handled using the software package Abase XE (Surrey, United Kingdom). The % inhibition values were calculated from the ratio (transformed) data by the equation:
100−(100*(compound response−average control 2)/(average control 1−average control2)).
For calculation of pIC50s, Abase XE used a four parameter equation.
IC50s<10 nM (+++++), IC50s 10-100 nM (++++), IC50s 100 nM-1 uM (+++), IC50s 1-10 uM (++). and IC50s 10 uM-100 uM (+), IC50s>100 uM (−), or were not determined (ND).

By EC50 is commonly meant the concentration at which the effect is half-maximal. As for `Cc1ccccc1S(=O)(=O)N(C)Cc1cccc(-n2ncc(C(=O)O)c2[C@@H]2C[C@H]2c2cn(C)nn2)c1` (racemic) [Example 42, 1-(3-((N,2-dimethylphenylsulfonamido)methyl)phenyl)-5-((trans)-2-(1-methyl-1H-1,2,3-triazol-4-yl)cyclopropyl)-1H-pyrazole-4-carboxylic acid], the EC50 in assay [1] and in assay [2] was 1000 to 10000 nM in each case.

With `COc1ccc(Br)cc1S(=O)(=O)N(C)Cc1cccc(-n2ncc(C(=O)O)c2[C@@H]2C[C@H]2c2cn(C)nn2)c1` (racemic) [Example 43, 1-(3-((5-bromo-2-methoxy-N-methylphenylsulfonamido)methyl)phenyl)-5-((trans)-2-(1-methyl-1H-1,2,3-triazol-4-yl)cyclopropyl)-1H-pyrazole-4-carboxylic acid], the EC50 in assay [1] and in assay [2] was 1000 to 10000 nM throughout.

Consider `COc1cc([N+](=O)[O-])ccc1S(=O)(=O)N(C)Cc1cccc(-n2ncc(C(=O)O)c2[C@@H]2C[C@H]2c2cn(C)nn2)c1` (racemic) [Example 44, 1-(3-((2-methoxy-N-methyl-4-nitrophenylsulfonamido)methyl)phenyl)-5-((trans)-2-(1-methyl-1H-1,2,3-triazol-4-yl)cyclopropyl)-1H-pyrazole-4-carboxylic acid], for which the EC50 in assay [1] and in assay [2] was 1000 to 10000 nM throughout.

With `CCOc1ccccc1S(=O)(=O)N(C)Cc1cccc(-n2ncc(C(=O)O)c2[C@@H]2C[C@H]2c2cn(C)nn2)c1` (racemic) [Example 45, 1-(3-((2-ethoxy-N-methylphenylsulfonamido)methyl)phenyl)-5-((trans)-2-(1-methyl-1H-1,2,3-triazol-4-yl)cyclopropyl)-1H-pyrazole-4-carboxylic acid], the EC50 in assay [1] and in assay [2] was 1000 to 10000 nM throughout.

For the compound `CN(Cc1cccc(-n2ncc(C(=O)O)c2[C@@H]2C[C@H]2c2cn(C)nn2)c1)S(=O)(=O)c1ccccc1OC(F)(F)F` (racemic) [Example 46, 5-((trans)-2-(1-methyl-1H-1,2,3-triazol-4-yl)cyclopropyl)-1-(3-((N-methyl-2-(trifluoromethoxy)phenylsulfonamido)methyl)phenyl)-1H-pyrazole-4-carboxylic acid], the EC50 in assay [1] and in assay [2] was 1000 to 10000 nM each time.

For the compound `COc1ccccc1S(=O)(=O)N(C)Cc1cccc(-n2ncc(C(=O)O)c2[C@@H]2C[C@H]2c2cn(C)nn2)c1` (racemic) [Example 47, 1-(3-((2-methoxy-N-methylphenylsulfonamido)methyl)phenyl)-5-((trans)-2-(1-methyl-1H-1,2,3-triazol-4-yl)cyclopropyl)-1H-pyrazole-4-carboxylic acid], the EC50 in assay [1] is 10 to 100 nM; in assay [2], 1000 to 10000 nM.

Consider `CN(Cc1cccc(-n2ncc(C(=O)O)c2[C@@H]2C[C@H]2c2cn(C)nn2)c1)S(=O)(=O)c1ccccc1` (racemic) [Example 48, 5-((trans)-2-(1-methyl-1H-1,2,3-triazol-4-yl)cyclopropyl)-1-(3-((N-methylphenylsulfonamido)methyl)phenyl)-1H-pyrazole-4-carboxylic acid], for which the EC50 in assay [1] and in assay [2] was 1000 to 10000 nM throughout.

Take `CCCCCCN(Cc1cccc(-n2ncc(C(=O)O)c2[C@@H]2C[C@H]2c2cn(C)nn2)c1)S(=O)(=O)c1ccccc1Oc1ccccc1` (racemic) [Example 49, 1-(3-((N-hexyl-2-phenoxyphenylsulfonamido)methyl)phenyl)-5-((trans)-2-(1-methyl-1H-1,2,3-triazol-4-yl)cyclopropyl)-1H-pyrazole-4-carboxylic acid]: the EC50 is 100 to 1000 nM in assay [1] and 1000 to 10000 nM in assay [2].

For the compound `CCCN(Cc1cccc(-n2ncc(C(=O)O)c2[C@@H]2C[C@H]2c2cn(C)nn2)c1)S(=O)(=O)c1ccccc1C` (racemic) [Example 50, 5-((trans)-2-(1-methyl-1H-1,2,3-triazol-4-yl)cyclopropyl)-1-(3-((2-methyl-N-propylphenylsulfonamido)methyl)phenyl)-1H-pyrazole-4-carboxylic acid], the figures for the EC50 in assay [1] and in assay [2] were 10 to 100 nM and 1000 to 10000 nM, respectively.

Take `CN(Cc1cccc(-n2ncc(C(=O)O)c2[C@@H]2C[C@H]2c2cn(C)nn2)c1)S(=O)(=O)c1cccc2cccnc12` (racemic) [Example 51, 5-((trans)-2-(1-methyl-1H-1,2,3-triazol-4-yl)cyclopropyl)-1-(3-((N-methylquinoline-8-sulfonamido)methyl)phenyl)-1H-pyrazole-4-carboxylic acid]: the EC50 in assay [1] was in the range of 100 to 1000 nM; in assay [2], 1000 to 10000 nM.

Consider `COc1ccccc1S(=O)(=O)NCc1cccc(-n2ncc(C(=O)O)c2[C@@H]2C[C@H]2c2cn(C)nn2)c1` (racemic) [Example 52, 1-(3-((2-methoxyphenylsulfonamido)methyl)phenyl)-5-((trans)-2-(1-methyl-1H-1,2,3-triazol-4-yl)cyclopropyl)-1H-pyrazole-4-carboxylic acid], for which the EC50 was in the range of 100 to 1000 nM in assay [1] and 1000 to 10000 nM in assay [2].

For the compound `COc1ccccc1S(=O)(=O)N(Cc1cccc(-n2ncc(C(=O)O)c2[C@@H]2C[C@H]2c2cn(C)nn2)c1)C1CC1` (racemic) [Example 53, 1-(3-((N-cyclopropyl-2-methoxyphenylsulfonamido)methyl)phenyl)-5-((trans)-2-(1-methyl-1H-1,2,3-triazol-4-yl)cyclopropyl)-1H-pyrazole-4-carboxylic acid], the EC50 in assay [1] was in the range of 100 to 1000 nM; in assay [2], 10000 to 100000 nM.

For `CCOc1ccc(Br)cc1CN(C)Cc1cccc(-n2ncc(C(=O)O)c2[C@@H]2C[C@H]2c2cn(C)nn2)c1` (racemic) [Example 54, 1-(3-(((5-bromo-2-ethoxybenzyl)(methyl)amino)methyl)phenyl)-5-((trans)-2-(1-methyl-1H-1,2,3-triazol-4-yl)cyclopropyl)-1H-pyrazole-4-carboxylic acid trifluoroacetate], the EC50 lay in the range of 100 to 1000 nM in assay [1] and 1000 to 10000 nM in assay [2].

For `CCCCCCN(Cc1cccc(-n2ncc(C(=O)O)c2[C@@H]2C[C@H]2c2cnn(C)c2)c1)S(=O)(=O)c1ccccc1C` (racemic) [Example 56], the EC50 in assay [1] lay in the range of 100 to 1000 nM; in assay [2] it was 10000 to 100000 nM.
